This is an account of results in patent publication US20230234948A1, “CYCLOPROPYL DIHYDROQUINOLINE SULFONAMIDE COMPOUNDS” (AMGEN INC., priority 2020, published 2023).

Structures are written as SMILES.

One data set deals with T1, Human NaV1.7 (Homo sapiens, UniProt Q15858).
T1 construct: expressed in transfected cells; host or cells: Spiking HEK cells (without Kir2.1 transfection)
T1 sequence (Q15858 whole entry): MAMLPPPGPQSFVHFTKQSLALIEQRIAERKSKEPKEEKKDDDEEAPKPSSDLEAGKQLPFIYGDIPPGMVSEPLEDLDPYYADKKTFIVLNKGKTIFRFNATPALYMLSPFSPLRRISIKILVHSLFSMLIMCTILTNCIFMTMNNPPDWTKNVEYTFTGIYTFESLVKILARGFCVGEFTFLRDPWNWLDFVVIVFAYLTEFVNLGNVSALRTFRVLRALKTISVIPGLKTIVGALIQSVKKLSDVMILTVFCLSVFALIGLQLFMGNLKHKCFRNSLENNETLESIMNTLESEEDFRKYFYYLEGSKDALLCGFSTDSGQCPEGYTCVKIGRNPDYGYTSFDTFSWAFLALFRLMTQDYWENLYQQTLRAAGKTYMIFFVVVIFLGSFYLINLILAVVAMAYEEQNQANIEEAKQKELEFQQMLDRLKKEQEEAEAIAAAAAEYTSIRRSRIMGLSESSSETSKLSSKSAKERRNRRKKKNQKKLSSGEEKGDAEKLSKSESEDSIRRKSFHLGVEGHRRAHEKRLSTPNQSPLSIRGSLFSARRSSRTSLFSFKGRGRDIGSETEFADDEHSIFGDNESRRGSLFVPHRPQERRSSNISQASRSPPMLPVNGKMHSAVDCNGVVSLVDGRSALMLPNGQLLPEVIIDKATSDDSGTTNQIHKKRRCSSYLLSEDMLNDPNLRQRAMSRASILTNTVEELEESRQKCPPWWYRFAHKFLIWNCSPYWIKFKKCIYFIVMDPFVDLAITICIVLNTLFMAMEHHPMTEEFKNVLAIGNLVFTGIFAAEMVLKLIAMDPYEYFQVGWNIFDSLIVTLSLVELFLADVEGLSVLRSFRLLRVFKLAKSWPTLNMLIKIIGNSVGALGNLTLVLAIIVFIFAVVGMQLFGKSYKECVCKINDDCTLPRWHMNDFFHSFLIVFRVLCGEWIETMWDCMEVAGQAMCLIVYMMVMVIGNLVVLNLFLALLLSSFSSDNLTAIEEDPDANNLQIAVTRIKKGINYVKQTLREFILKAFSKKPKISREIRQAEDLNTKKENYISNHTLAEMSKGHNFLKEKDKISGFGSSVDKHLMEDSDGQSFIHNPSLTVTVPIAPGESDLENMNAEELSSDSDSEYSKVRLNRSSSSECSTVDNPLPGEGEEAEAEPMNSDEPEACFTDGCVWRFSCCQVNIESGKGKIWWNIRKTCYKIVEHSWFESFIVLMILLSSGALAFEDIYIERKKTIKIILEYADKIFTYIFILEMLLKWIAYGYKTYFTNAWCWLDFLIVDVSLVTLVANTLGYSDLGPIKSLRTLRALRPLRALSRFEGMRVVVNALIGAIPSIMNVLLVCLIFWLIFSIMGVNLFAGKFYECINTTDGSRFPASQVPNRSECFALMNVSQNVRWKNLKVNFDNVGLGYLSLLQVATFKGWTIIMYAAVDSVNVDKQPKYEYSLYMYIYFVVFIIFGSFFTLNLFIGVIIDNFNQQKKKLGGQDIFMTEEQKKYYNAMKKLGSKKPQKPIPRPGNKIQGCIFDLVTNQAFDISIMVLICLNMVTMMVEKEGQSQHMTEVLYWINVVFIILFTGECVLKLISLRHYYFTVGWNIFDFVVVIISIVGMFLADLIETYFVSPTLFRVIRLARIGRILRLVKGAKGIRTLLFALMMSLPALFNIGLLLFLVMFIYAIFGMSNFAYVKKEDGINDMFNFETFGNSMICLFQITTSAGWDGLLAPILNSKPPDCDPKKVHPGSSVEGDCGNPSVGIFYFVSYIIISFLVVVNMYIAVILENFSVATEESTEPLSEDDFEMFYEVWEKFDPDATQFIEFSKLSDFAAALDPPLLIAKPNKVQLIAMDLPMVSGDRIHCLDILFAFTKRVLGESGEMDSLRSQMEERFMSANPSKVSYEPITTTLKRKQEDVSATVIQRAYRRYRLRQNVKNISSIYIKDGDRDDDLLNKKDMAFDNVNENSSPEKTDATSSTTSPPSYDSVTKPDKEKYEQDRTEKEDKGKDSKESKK
As to the kind of experiment: Ionworks Barracuda (IWB) automated patch clamp assay. Type of data set: cell-based. Conditions: human NaV1.7 in HEK cells, population patch-clamp, state- and use-dependent voltage protocol; read-out: hNaV1.7 IWB-U IC50. As to the method: Ionworks Barracuda (IWB) Automated Patch Clamp Assay (Same Protocol for Both Human and Mouse)
Human NaV1.7 currents were recorded in population patch-clamp mode with the IWB automated electrophysiology system (Molecular Devices, LLC, Sunnyvale, Calif.). Spiking HEK cells (without Kir2.1 transfection) were cultured and prepared for recordings as previously described for IonWorks Quattro testing^1. The external solution consisted of the following (in mM): NaCl 140, KCl 5, CaCl2 2, MgCl2 1, HEPES 10, and glucose 11, pH 7.4, with N-methyl-D-glucamine at 320 mOsmol. […] From a holding potential of −110 mV, currents were elicited by a train of 26 depolarizations of 150 ms duration to −20 mV at a frequency of 5 Hz. Cells were then clamped to −20 mV for a period of 4 minutes in the presence of a single concentration of test compound. Following this compound incubation period, cells were clamped to −110 mV for three seconds to recover unbound channels and put through the same 26 pulse voltage protocol as above. Peak inward current during the 26th pulse to −20 mV in the presence of compound was divided by the peak inward current evoked by the 26th pulse to −20 mV in the absence of compound to determine percent inhibition. Concentration-response curves of percent inhibition as a function of concentration were generated to calculate IC50 values as described in Kornecook, T. J.; Yin, R.; Altmann, S.; et al. Pharmacologic Characterization of AMG8379, a Potent and Selective Small Molecule Sulfonamide Antagonist of the Voltage-Gated Sodium Channel NaV1. 7.
The potency of the compounds of the present invention were evaluated on human NaV1.7 channels using the above described IonWorks Barracuda automated electrophysiology platform that evaluates the ability of compounds to block sodium conductance through NaV1.7 channels. A voltage-protocol that prosecutes both state-dependent as well as use-dependent inhibition was used as these modes of action are thought to be more relevant for the native state of NaV1.7 channels in pain sensing neurons in vivo.
For the molecule `COc1cc([C@H]2C[C@@H]2C2CC2)c(F)cc1-n1c(=O)ccc2cc(S(=O)(=O)Nc3ccon3)ccc21` (atropisomer, axis not shown; (P)) [Example 31, (P)-1-(4-((1R,2S)-[1,1′-bi(cyclopropan)]-2-yl)-5-fluoro-2-methoxyphenyl)-N-(isoxazol-3-yl)-2-oxo-1,2-dihydroquinoline-6-sulfonamide], the IC50 came out at 9 nM. For `COc1cc([C@@H]2C[C@H]2C(F)(F)F)c(F)cc1-n1c(=O)ccc2cc(S(=O)(=O)Nc3ncns3)ccc21` (atropisomer, axis not shown; (P)) [Example 34, (P)-1-(5-fluoro-2-methoxy-4-((1R,2R)-2-(trifluoromethyl)cyclopropyl)phenyl)-2-oxo-N-(1,2,4-thiadiazol-5-yl)-1,2-dihydroquinoline-6-sulfonamide], the IC50 is 5 nM. As for `COc1cc([C@@H]2C[C@H]2C(F)(F)F)c(F)cc1-n1c(=O)ccc2cc(S(=O)(=O)Nc3ncco3)ccc21` (atropisomer, axis not shown; (P)) [Example 35, (P)-1-(5-fluoro-2-methoxy-4-((1R,2R)-2-(trifluoromethyl)cyclopropyl)phenyl)-N-(oxazol-2-yl)-2-oxo-1,2-dihydroquinoline-6-sulfonamide], the IC50 came out at 11 nM. Same read-out and setting: the result for `COc1cc([C@H]2C[C@@H]2C(F)(F)F)c(F)cc1-n1c(=O)ccc2cc(S(=O)(=O)Nc3ncco3)ccc21` (atropisomer, axis not shown; (P)) [Example 36, (P)-1-(5-fluoro-2-methoxy-4-((1S,2S)-2-(trifluoromethyl)cyclopropyl)phenyl)-N-(oxazol-2-yl)-2-oxo-1,2-dihydroquinoline-6-sulfonamide] reads 6 nM. The same measure, in the same setting: as for `COc1cc([C@H]2C[C@@H]2C(F)(F)F)c(C#N)cc1-n1c(=O)ccc2cc(S(=O)(=O)Nc3ccon3)ccc21` (atropisomer, axis not shown; (P)) [Example 37, (P)-1-(5-cyano-2-methoxy-4-((1S,2S)-2-(trifluoromethyl)cyclopropyl)phenyl)-N-(isoxazol-3-yl)-2-oxo-1,2-dihydroquinoline-6-sulfonamide], the figure is 7 nM. As to `COc1cc([C@@H]2C[C@H]2C(F)(F)F)c(F)cc1-n1c(=O)cc(F)c2cc(S(=O)(=O)Nc3ccon3)ccc21` (atropisomer, axis not shown; (P)) [Example 44, (P)-4-fluoro-1-(5-fluoro-2-methoxy-4-((1R,2R)-2-(trifluoromethyl)cyclopropyl)phenyl)-N-(isoxazol-3-yl)-2-oxo-1,2-dihydroquinoline-6-sulfonamide], the IC50 was found to be 5 nM. Regarding `COc1cc([C@@H]2C[C@H]2C(F)(F)F)ccc1-n1c(=O)ccc2cc(S(=O)(=O)Nc3ccon3)c(F)cc21` (atropisomer, axis not shown; (P)) [Example 47, (P)-7-fluoro-N-(isoxazol-3-yl)-1-(2-methoxy-4-((1R,2R)-2-(trifluoromethyl)cyclopropyl)phenyl)-2-oxo-1,2-dihydroquinoline-6-sulfonamide], the IC50 turned out to be 12 nM. On to `COc1cc([C@H]2C[C@@H]2C(F)(F)F)ccc1-n1c(=O)ccc2cc(S(=O)(=O)Nc3ccon3)c(F)cc21` (atropisomer, axis not shown; (P)) [Example 48, (P)-7-fluoro-N-(isoxazol-3-yl)-1-(2-methoxy-4-((1S,2S)-2-(trifluoromethyl)cyclopropyl)phenyl)-2-oxo-1,2-dihydroquinoline-6-sulfonamide], for which the IC50 was 11 nM. The same measure, in the same setting: as for `COc1cc([C@@H]2C[C@H]2C(F)(F)F)c(F)cc1-n1c(=O)ccc2cc(S(=O)(=O)Nc3ccon3)ccc21` (racemic) [Example 3, trans-1-(5-fluoro-2-methoxy-4-(2-(trifluoromethyl)cyclopropyl)phenyl)-N-(isoxazol-3-yl)-2-oxo-1,2-dihydroquinoline-6-sulfonamide], the figure is 23 nM. Consider `COc1cc([C@H]2C[C@@H]2C(F)(F)F)c(Cl)cc1-n1c(=O)ccc2cc(S(=O)(=O)Nc3cccnn3)ccc21` (single isomer, unassigned) [Example 15], for which the IC50 is 14 nM. With `COc1cc(C2(C(F)(F)F)CC2)c(F)cc1-n1c(=O)ccc2cc(S(=O)(=O)Nc3ccon3)ccc21` (single isomer, unassigned) [Example 22, (P)-1-(5-fluoro-2-methoxy-4-(1-(trifluoromethyl)cyclopropyl)phenyl)-N-(isoxazol-3-yl)-2-oxo-1,2-dihydroquinoline-6-sulfonamide], the IC50 worked out at 14 nM. For `COc1cc([C@H]2C[C@@H]2C(F)(F)F)c(C)cc1-n1c(=O)ccc2cc(S(=O)(=O)Nc3ccon3)ccc21` (single isomer, unassigned) [Example 27], the concentration for half-maximal inhibition (IC50) was 13 nM. Take `COc1cc(C2(C(F)(F)F)CC2)c(F)cc1-n1c(=O)ccc2cc(S(=O)(=O)Nc3ccon3)ccc21` (single isomer, unassigned) [Example 42, (P)-1-(5-fluoro-2-methoxy-4-(1-(trifluoromethyl)cyclopropyl)phenyl)-N-(isoxazol-3-yl)-2-oxo-1,2-dihydroquinoline-6-sulfonamide]: the IC50 is 20 nM. On the same count and under the same terms, as for `COc1cc(C2(C(F)(F)F)CC2)c(F)cc1-n1c(=O)ccc2cc(S(=O)(=O)Nc3ccon3)ccc21` (single isomer, unassigned) [Example 43, (M)-1-(5-fluoro-2-methoxy-4-(1-(trifluoromethyl)cyclopropyl)phenyl)-N-(isoxazol-3-yl)-2-oxo-1,2-dihydroquinoline-6-sulfonamide], the figure is 1630 nM. The same measure, in the same setting: the result for `COc1cc([C@H]2C[C@@H]2C(F)(F)F)c(F)cc1-n1c(=O)ccc2cc(S(=O)(=O)Nc3ccon3)c(F)cc21` (single isomer, unassigned) [Example 46] reads 11 nM.

The next data set concerns CYP3A4. The experiment in a line: Human CYP 3A4 induction assay (mRNA, cryopreserved human hepatocytes). Type of data set: in vitro ADME. Conditions: 10 uM test compound, 72 hours, percent of control (rifampin positive control). As to the method:
Human CYP 3A4 Induction Assay
Cryopreserved human hepatocytes were seeded in 96-well collagen coated plates at 70,000 cells per well in hepatocyte plating media (HPM, final concentrations: 1× Dulbecco's Modified Eagle's Medium, 0.1 μM dexamethasone, 10% fetal bovine serum, 1×ITS, 1×PSG) followed by incubation at 37° C. under 5% CO2 and 90% relative humidity for 2 days to allow hepatocytes to form a confluent layer. On Day 3, hepatocytes were treated with either test compound or rifampin (20 μM, positive control for CYP3A induction) prepared in hepatocyte incubation media ((HIM, final concentrations: 1× William's Medium E, 0.1 μM dexamethasone, 1×ITS, 1×PSG). Treatment was performed for 72 hours with either 2 concentrations (2 μM or 10 μM) or a range of concentrations (0.001 μM to 100 μM) of the test compound to obtain full dose-response curve. Fresh media containing the relevant concentrations of the test compound was replaced every day until the samples were processed. After 72 hours of incubation, samples were processed for mRNA analysis using bDNA technology using manufacturer's instructions (Affymetrix, Fremont, Calif.). Cell viability was tested at the end of the experiment using MTT assay kit (Roche Diagnostics, Basel, Switzerland). Data was analyzed and presented as percent of control (POC) and Emax and EC50 obtained when appropriate according to guidance from Center for Drug Evaluation and Research (CDER), 2006, Guidance for Industry, Drug Interaction Studies—Study Design, Data Analysis, and Implications for Dosing and Labeling.
Cryopreserved human hepatocytes were seeded in 96-well collagen coated plates at 70,000 cells per well in hepatocyte plating media (HPM, final concentrations: 1× Dulbecco's Modified Eagle's Medium, 0.1 μM dexamethasone, 10% fetal bovine serum, 1×ITS, 1×PSG) followed by incubation at 37° C. under 5% CO2 and 90% relative humidity for 2 days to allow hepatocytes to form a confluent layer. On Day 3, hepatocytes were treated with either test compound or rifampin (20 μM, positive control for CYP3A induction) prepared in hepatocyte incubation media ((HIM, final concentrations: 1× William's Medium E, 0.1 μM dexamethasone, 1×ITS, 1×PSG). Treatment was performed for 72 hours with either 2 concentrations (2 μM or 10 μM) or a range of concentrations (0.001 μM to 100 μM) of the test compound to obtain full dose-response curve. Fresh media containing the relevant concentrations of the test compound was replaced every day until the samples were processed. After 72 hours of incubation, samples were processed for mRNA analysis using bDNA technology using manufacturer's instructions (Affymetrix, Fremont, Calif.). Cell viability was tested at the end of the experiment using MTT assay kit (Roche Diagnostics, Basel, Switzerland). Data was analyzed and presented as percent of control (POC) and Emax and EC50 obtained when appropriate, as described in Halladay, J. et al, 2012, An “all-inclusive” 96-well cytochrome P450 induction method: Measuring enzyme activity, mRNA levels, protein levels, and cytotoxicity from one well using cryopreserved human hepatocytes, Pharmacological and Toxicological Methods, 66:270-275.
The cytochrome P450 (CYP) is a well-known superfamily of enzymes that are responsible for the oxidative and reductive metabolic transformation of medications used in clinical practice. In addition, the CYP enzymes are commonly associated with causing many clinically relevant drug-drug interactions. […]
Take `COc1cc([C@@H]2C[C@H]2C(F)(F)F)c(F)cc1-n1c(=O)ccc2cc(S(=O)(=O)Nc3nncs3)ccc21` (atropisomer, axis not shown; (P)) [Example 40, (P)-1-(5-fluoro-2-methoxy-4-((1R,2R)-2-(trifluoromethyl)cyclopropyl)phenyl)-2-oxo-N-(1,3,4-thiadiazol-2-yl)-1,2-dihydroquinoline-6-sulfonamide]: the “CYP3A4 mRNA Induct Hu 10 uM POC” value was found to be 10.79%.
